From US5789431A, “Naphthoquinone antitumor compound and method” (The University of North Carolina at Chapel Hill, priority 1996, dated 1998)

What was measured:
human tumor cell lines = format: cell-based; conditions: Homo sapiens; cancer cell panel, general / most cell lines; read-out: logGI50 values in the cancer cell line panel (converted)
MALME-3M = test: in vitro melanoma cell growth inhibition (NCI screen)
UACC-257 = test: as above
UACC-62 = test: as above
CCRF-CEM = test: in vitro leukemia cell growth inhibition (NCI screen)
HL-60(TB) = test: as above
K-562 = test: as above
MOLT-4 = test: as above
U 251 = test: in vitro CNS cancer cell growth inhibition (NCI screen)
HCT-116 = test: in vitro colon cancer cell growth inhibition (NCI screen)
HCT-15 = test: as above
SW 620 = test: as above
ACHN = test: in vitro renal cancer cell growth inhibition (NCI screen)
RXF-393 = test: as above
IGROV1 = test: in vitro ovarian cancer cell growth inhibition (NCI screen)
T-47D = test: in vitro breast cancer cell growth inhibition (NCI screen)
PC-3 = test: in vitro prostate cancer cell growth inhibition (NCI screen)
HOP-92 = test: in vitro non-small cell lung cancer cell growth inhibition (NCI screen)
NCI-H266 = test: as above
NCI-H522 = test: as above
RPMI-8226 = test: in vitro leukemia cell growth inhibition (NCI screen)
SR = test: as above
SF-539 = test: in vitro CNS cancer cell growth inhibition (NCI screen)
SNB-75 = test: as above
XF-498 = test: as above
DLD-1 = test: in vitro colon cancer cell growth inhibition (NCI screen)
OVCAR-8 = test: in vitro ovarian cancer cell growth inhibition (NCI screen)
NCI-H23 = test: in vitro non-small cell lung cancer cell growth inhibition (NCI screen)
LOX1MVI = test: in vitro melanoma cell growth inhibition (NCI screen)
M19-MEL = test: as above
SK-MEL-2 = test: as above
SK-MEL-5 = test: as above
UO-31 = test: in vitro renal cancer cell growth inhibition (NCI screen)
SK-MEL-28 = test: in vitro melanoma cell growth inhibition (NCI screen)
COLO-205 = test: in vitro colon cancer cell growth inhibition (NCI screen)
HT 29 = test: as above
KM 12 = test: as above
OVCAR-3 = test: in vitro ovarian cancer cell growth inhibition (NCI screen)
MDA-MB-435 = test: in vitro breast cancer cell growth inhibition (NCI screen)
MDA-N = test: as above
M14 = test: in vitro melanoma cell growth inhibition (NCI screen)
SF-268 = test: in vitro CNS cancer cell growth inhibition (NCI screen)
OVCAR-4 = test: in vitro ovarian cancer cell growth inhibition (NCI screen); conditions: OVACR-4
MCF-7 = test: in vitro breast cancer cell growth inhibition (NCI screen)
TK-10 = test: in vitro renal cancer cell growth inhibition (NCI screen)

| SMILES | cytotoxicity log GI50 (MALME-3M) [M] | cytotoxicity log GI50 (UACC-257) [M] | cytotoxicity log GI50 (UACC-62) [M] | cytotoxicity log GI50 (CCRF-CEM) [M] | cytotoxicity log GI50 (HL-60(TB)) [M] | cytotoxicity log GI50 (K-562) [M] | cytotoxicity log GI50 (MOLT-4) [M] | cytotoxicity log GI50 (HCT-116) [M] | cytotoxicity log GI50 (HCT-15) [M] | cytotoxicity log GI50 (SW 620) [M] | cytotoxicity log GI50 (ACHN) [M] | cytotoxicity log GI50 (RXF-393) [M] | cytotoxicity log GI50 (NCI-H522) [M] | cytotoxicity log GI50 (SF-539) [M] | cytotoxicity log GI50 (SNB-75) [M] | cytotoxicity log GI50 (XF-498) [M] | cytotoxicity log GI50 (NCI-H23) [M] | cytotoxicity log GI50 (KM 12) [M] | cytotoxicity log GI50 (OVCAR-3) [M] | cytotoxicity log GI50 (MDA-N) [M] | further results |
| --- | --- | --- | --- | --- | --- | --- | --- | --- | --- | --- | --- | --- | --- | --- | --- | --- | --- | --- | --- | --- | --- |
| O=C(NC1=C(Cl)C(=O)c2ccccc2C1=O)c1ccc(F)cc1 [Compound 2f] | -5.82 | -5.71 | -6.55 | -6.10 | -6.47 | -6.04 | -5.65 | -6.34 | -6.27 | -6.11 | -6.03 | -5.90 | -6.34 | – | – | – | – | – | – | – | GI50 (human tumor cell lines): ~1000 nM; cytotoxicity log GI50 (U 251): -5.73 M; cytotoxicity log GI50 (IGROV1): -5.77 M; cytotoxicity log GI50 (T-47D): -5.72 M; cytotoxicity log GI50 (PC-3): -5.95 M; cytotoxicity log GI50 (HOP-92): -5.79 M; cytotoxicity log GI50 (NCI-H266): -5.96 M |
| O=C(Cc1ccc(F)cc1)NC1=C(Cl)C(=O)c2ccccc2C1=O [Compound 2j] | -5.67 | – | – | – | -7.56 | – | – | – | -5.64 | -5.68 | -5.70 | -5.75 | – | -5.65 | -5.66 | -5.71 | -5.89 | – | – | – | GI50 (human tumor cell lines): 25.1 to 2510 nM; cytotoxicity log GI50 (RPMI-8226): -7.07 M; cytotoxicity log GI50 (SR): -6.88 M; cytotoxicity log GI50 (DLD-1): -5.62 M; cytotoxicity log GI50 (IGROV1): -5.73 M; cytotoxicity log GI50 (OVCAR-8): -5.71 M; cytotoxicity log GI50 (HOP-92): -5.72 M |
| CCC(C)(C)NC1=C(NC(C)=O)C(=O)c2ccccc2C1=O [Compound 36] | -4.54 | -4.69 | -4.60 | -4.77 | -4.78 | -4.68 | -4.86 | -4.75 | – | – | -4.82 | -4.60 | -4.99 | -4.61 | – | -4.84 | -4.72 | – | – | – | cytotoxicity log GI50 (LOX1MVI): -4.53 M; cytotoxicity log GI50 (M19-MEL): -4.88 M; cytotoxicity log GI50 (SK-MEL-2): -4.68 M; cytotoxicity log GI50 (SK-MEL-5): -4.87 M; cytotoxicity log GI50 (SR): -4.50 M; cytotoxicity log GI50 (UO-31): -4.56 M |
| CC(=O)NC1=C(NCc2ccc(Cl)cc2)C(=O)c2ccccc2C1=O [Compound 42] | – | -5.21 | -5.58 | – | -5.86 | -5.61 | -5.62 | -5.51 | -5.25 | – | -5.74 | -5.37 | -6.01 | -5.36 | – | -5.84 | – | – | – | – | cytotoxicity log GI50 (M19-MEL): -5.28 M; cytotoxicity log GI50 (SK-MEL-2): -5.25 M; cytotoxicity log GI50 (SK-MEL-28): -5.26 M; cytotoxicity log GI50 (SK-MEL-5): -5.26 M; cytotoxicity log GI50 (COLO-205): -5.27 M; cytotoxicity log GI50 (UO-31): -5.29 M |
| CCCC(=O)NC1=C(NCC)C(=O)c2ccccc2C1=O [Compound 46] | -4.41 | -4.40 | – | – | -4.39 | -4.29 | – | -4.36 | -4.40 | -4.48 | – | -4.32 | -4.59 | – | – | – | – | -4.28 | -4.47 | -4.68 | cytotoxicity log GI50 (COLO-205): -4.44 M; cytotoxicity log GI50 (HT 29): -4.36 M; cytotoxicity log GI50 (MDA-MB-435): -4.60 M; cytotoxicity log GI50 (PC-3): -4.39 M |
| COC(=O)CCCC(=O)NC1=C(Nc2ccccc2)C(=O)c2ccccc2C1=O [Compound 52] | -5.45 | – | -5.49 | – | – | – | – | – | – | – | – | – | – | – | – | – | -4.97 | -5.28 | -4.90 | -5.41 | cytotoxicity log GI50 (MDA-MB-435): -5.26 M |
| O=C(O)CCCc1nc2c(n1-c1ccccc1)C(=O)c1ccccc1C2=O [Compound 58] | -4.67 | -4.48 | -4.48 | -4.39 | -4.43 | – | – | -4.31 | – | – | – | – | -4.85 | – | -4.36 | – | – | -4.50 | -4.47 | -4.36 | cytotoxicity log GI50 (M14): -4.72 M; cytotoxicity log GI50 (RPMI-8226): -4.39 M; cytotoxicity log GI50 (SF-268): -4.42 M; cytotoxicity log GI50 (OVCAR-4): -4.62 M; cytotoxicity log GI50 (MCF-7): -4.49 M |
| CCC(c1ccccc1F)c1nc2c(n1CC)C(=O)c1ccccc1C2=O (centres unmarked) [Compound 64] | – | – | – | – | – | – | -4.62 | – | – | – | – | -5.53 | – | – | -4.60 | – | – | – | – | – | cytotoxicity log GI50 (U 251): -5.07 M; cytotoxicity log GI50 (TK-10): -5.49 M |
